Data taken from patent US20230212129A1, “QUINAZOLINE DERIVATIVES USEFUL AS SELECTIVE HDAC6 INHIBITORS” (AnnJi Pharmaceutical Co., Ltd., priority 2020, published 2023).

What was measured:
[1] = system: bleomycin-induced pulmonary fibrosis; experiment: Bleomycin-induced pulmonary fibrosis model, lung histology (H&E); type: in vivo, mice
Procedure: (§1) The activities of compounds COMPOUND 2 and COMPOUND 33 in preventing and/or treating pulmonary fibrosis were examined using a bleomycin-induced pulmonary fibrosis model, a model that involves deactivated bleomycin hydrolase, elevated oxidative stress, and increased inflammatory cytokines. In the prevention model, mice were administered bleomycin intratracheally an hour in prior to the first oral administration of 30 mg/kg testing compounds. The treatment continued for 21 consecutive days, and mice were sacrificed to examine histological changes of lung tissues were analyzed by H&E staining to evaluate the degree of lung fibrosis. Additionally, the HDAC6 inhibitors, COMPOUND 2 and COMPOUND 33, were tested for their effect in aiding animal recovery from lung injury and pulmonary fibrosis post injury.

[2] = molecular target: T1, HDAC6 (Homo sapiens, UniProt Q9UBN7); experiment: HDAC6 activity, acetylated-AMC-labeled peptide substrate; type: biochemical
T1 construct: GST (N); host or cells: baculovirus expression system, Sf9 insect cells
T1 sequence (Q9UBN7 1-1215): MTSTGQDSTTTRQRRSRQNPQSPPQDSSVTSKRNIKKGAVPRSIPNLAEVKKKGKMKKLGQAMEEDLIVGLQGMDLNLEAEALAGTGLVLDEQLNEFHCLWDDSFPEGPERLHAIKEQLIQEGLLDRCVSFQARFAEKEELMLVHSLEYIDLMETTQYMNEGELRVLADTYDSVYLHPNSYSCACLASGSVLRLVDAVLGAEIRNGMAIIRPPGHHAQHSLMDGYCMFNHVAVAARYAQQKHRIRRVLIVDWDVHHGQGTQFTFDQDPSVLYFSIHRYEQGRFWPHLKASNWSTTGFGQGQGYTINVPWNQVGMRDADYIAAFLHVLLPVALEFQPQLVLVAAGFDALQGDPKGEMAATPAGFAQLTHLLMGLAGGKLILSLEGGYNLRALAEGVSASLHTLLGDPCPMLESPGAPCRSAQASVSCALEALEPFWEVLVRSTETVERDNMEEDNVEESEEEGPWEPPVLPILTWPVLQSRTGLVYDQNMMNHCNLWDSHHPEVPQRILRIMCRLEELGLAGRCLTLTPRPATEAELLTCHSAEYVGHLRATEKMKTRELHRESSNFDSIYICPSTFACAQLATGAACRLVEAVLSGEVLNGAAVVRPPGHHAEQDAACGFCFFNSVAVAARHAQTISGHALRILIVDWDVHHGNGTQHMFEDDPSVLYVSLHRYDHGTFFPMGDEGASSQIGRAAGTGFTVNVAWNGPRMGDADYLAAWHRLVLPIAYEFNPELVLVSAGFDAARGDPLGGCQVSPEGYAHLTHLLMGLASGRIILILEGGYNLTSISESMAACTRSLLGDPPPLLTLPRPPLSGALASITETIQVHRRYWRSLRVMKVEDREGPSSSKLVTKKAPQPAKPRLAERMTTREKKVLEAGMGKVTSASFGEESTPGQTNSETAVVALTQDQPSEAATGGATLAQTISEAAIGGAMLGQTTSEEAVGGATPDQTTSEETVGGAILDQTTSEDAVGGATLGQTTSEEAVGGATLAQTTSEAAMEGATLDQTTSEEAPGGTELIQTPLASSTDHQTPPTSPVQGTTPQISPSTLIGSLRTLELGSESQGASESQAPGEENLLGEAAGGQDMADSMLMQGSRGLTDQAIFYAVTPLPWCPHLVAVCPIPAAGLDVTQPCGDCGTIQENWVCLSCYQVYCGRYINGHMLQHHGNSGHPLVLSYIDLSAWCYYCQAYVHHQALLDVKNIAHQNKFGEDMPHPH
Procedure: (§2) The activities of HDAC 1 and 6 were measured by using an acetylated-AMC-labeled peptide substrate, a fluorogenic peptide from p53 residues 379-382 (RHIKKAc). The proteins involved in the assay are as the followings (1) Human HIDAC1 (Genflank Accession No. NM_004964): Full length with C-terminal GST tag, MW=79.9 kDa, expressed by baculovirus expression system in SP9 cells; and (2) Human HIDAC6 (Genflank Accession No. BC069243): Full length with N-terminal GST tag, MW=159 kDa, expressed by baculovirus expression system in Sf9 cells.

[3] = molecular target: T2, HDAC1 (Homo sapiens, UniProt Q13547); experiment: HDAC1 activity, acetylated-AMC-labeled peptide substrate; type: biochemical
T2 construct: GST (C); host or cells: baculovirus expression system, Sf9 insect cells (SP9 [sic])
T2 sequence (Q13547 whole entry): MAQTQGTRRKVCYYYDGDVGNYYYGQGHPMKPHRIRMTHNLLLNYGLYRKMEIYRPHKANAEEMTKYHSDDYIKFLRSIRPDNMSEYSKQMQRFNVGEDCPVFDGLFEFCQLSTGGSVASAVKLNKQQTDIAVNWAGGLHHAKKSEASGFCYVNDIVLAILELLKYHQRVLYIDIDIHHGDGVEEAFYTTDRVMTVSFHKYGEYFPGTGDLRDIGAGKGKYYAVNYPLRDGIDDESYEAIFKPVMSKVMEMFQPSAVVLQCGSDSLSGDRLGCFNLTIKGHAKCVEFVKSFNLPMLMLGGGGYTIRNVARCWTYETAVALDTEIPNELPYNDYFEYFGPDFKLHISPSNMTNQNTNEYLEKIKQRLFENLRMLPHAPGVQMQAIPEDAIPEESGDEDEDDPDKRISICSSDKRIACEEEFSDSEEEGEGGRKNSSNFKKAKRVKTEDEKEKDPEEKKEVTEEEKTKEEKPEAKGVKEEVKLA
Procedure: as §2

[4] = system: acetylated α-tubulin (Ac-α-tub); experiment: Western blot of acetylated α-tubulin in primary DRG cells; type: cell-based, C57BL/6J mice; conditions: 48 hours of treatment, FIG. 2
Procedure: (§3) To investigate the effect of HDAC6 inhibitors in neuron protection and neuron regeneration, the recovery of dorsal root ganglion (DRG) cells post-paclitaxel injury was tested. Dorsal root ganglion was extracted from 7 week-old female C57BL/6J mice and incubated with HDAC6 inhibitors (compounds COMPOUND 33, COMPOUND 34, or COMPOUND 2) at the concentrations of 0.1 μM and 1 μM, or 100 ng/ml of BDNF, a neuronal growth factor (positive control), for 24 hours prior to a 24-hour incubation of 0.1 μM paclitaxel.

[5] = Oral pharmacokinetics (Table II); set-up: AUC: concentration or dose not given beside the values; conditions: in vivo
[6] = system: IL-6; experiment: IL-6 in bronchoalveolar lavage fluid, bleomycin model; type: in vivo, mice; conditions: prevention model, 30 mg/kg oral, 21 days; FIG. 6
Procedure: as §1, with “fibrosis.” for “fibrosis. Additionally, the HDAC6 inhibitors, COMPOUND 2 and COMPOUND 33, were tested for their effect in aiding animal recovery from lung injury and pulmonary fibrosis post injury.”

[7] = system: BioMAP Fibrosis panel (REMyoF, SAEMyoF, MyoF systems); experiment: BioMAP Fibrosis panel cytokine/biomarker profiles; type: cell-based
Procedure: The HDAC6 inhibitor compounds were tested in a commercially available platform, BioMAP, for the cytokine profiles in related to tissue injuries. The BioMAP Fibrosis panel included 3 systems stimulated to model TGFβ and TNFα driven myofibroblast differentiation during chronic inflammation and wound healing in different tissue settings. Fibrotic disease of the kidney associated with end-stage renal failure was captured in the REMyoF system consisting of a co-culture of renal proximal tubule epithelial cells and adult fibroblasts. Interstitial lung diseases, including pulmonary fibrotic diseases such as idiopathic pulmonary fibrosis (IPF), was modeled by co-culturing small airway epithelial cells and adult fibroblasts in the SAEMyoF system. Both co-culture systems modeled the paracrine interaction between myofibroblasts and the proximally located epithelial cells, while the impact on fibroblasts alone was interrogated using the monoculture MyoF system. A signature BioMAP profile that is reflective of the changes in protein biomarker readouts within an individual system was generated for each testing compounds. Biomarker readouts selected for therapeutic and biological relevance were predictive for disease outcomes or specific drug effects, and was validated using agents with known clinical efficacy. Each readout was measured quantitatively by immune-based methods that detect protein (e.g., ELISA).

[8] = system: dorsal root ganglion (DRG) cells; experiment: DRG neurite outgrowth after paclitaxel-induced damage; type: cell-based, C57BL/6J mice; conditions: 0.1 μM and 1 μM, 24 hours prior to 24-hour 0.1 μM paclitaxel; FIG. 1
Procedure: as §3
The neurite was stained by pIII-tubulin.

HDAC6 selectivity (A)/(B) ([2]; HDAC1 IC50 / HDAC6 IC50): 134 | IC50 ([2]; read-out: HDAC6 IC50 (B)): 0.033 µM | IC50 [3]: 4.44 µM | Cmax [5]: 2720 ng/mL | AUC ([5]; unit inferred): 11000 ng·h/mL
SMILES: CCc1nc2cc(F)c(/C=C/C(=O)NO)cc2c(=O)n1-c1ccccc1 [Compound 33, (E)-3-(2-ethyl-7-fluoro-4-oxo-3-phenyl-3,4-dihydroquinazolin-6-yl)-N-hydroxyacrylamide]
development of lung fibrosis ([1]; prevention model, 30 mg/kg oral, 21 consecutive days, FIG. 5): markedly decreased the development of lung fibrosis | recovery from lung injury and pulmonary fibrosis post injury ([1]; treatment post injury): protective effect in pulmonary inflammatory response and pulmonary fibrosis | tubulin hyperacetylation [4]: tubulin hyperacetylation | IL-6 level in the BALF [6]: suppressed IL-6 level in the BALF | fibrosis-related matrix activities ([7]; BioMAP readouts): decreased Collagen III, MMP-9; increased Collagen IV; modulated MMP-1, Collagen I | inflammation-related activities ([7]; BioMAP readouts): decreased M-CSF, sIL-6, MCP-1; modulated IP-10, I-TAC | myofibroblast activation-related activities ([7]; BioMAP readouts): decreased αSMA, E-Cadherin, N-Cadherin | tissue remodeling/wound healing activities ([7]; BioMAP readouts): decreased EGFR, tPA, uPA; modulated sVEGF | activities on cytokines contributing to fibrosis ([7]; compared with nintedanib): marked activities in decreasing TNF-α, IL-1, IL-6, MMP-9, VEGF, and collagen I | neurite outgrowth [8]: significantly rescued the neurite outgrowth
